The structures appear in SMILES notation. In brackets after ≈: the same amount, converted by molar mass.

A short description of series [1]: Stability to sterilisation. The class given is physicochemical. To be noted: treated at 121 °C for 10 mn.
The nature of series [2]: Neurotoxicity: acute toxicity by intracerebral administration. The arrangement: species or system souris. To be noted: mouse, in vivo, female SWISS OF1 mice, toxicity noted 7 days after administration, read-out: DL50 IC. From the text:
- la toxicité aiguë des composés a été déterminée sur souris femelles (poids 20 g) de souche SWISS OF1 par administration intra-cérébrale selon la technique décrite par HOLEY et Mc CQRMICK dans :
Pharmacological effects produced by intracerebral injection of drugs in the conscious mouse BRIT.J.PHARMACOL. 12, 2. 1957.
5 animaux sont utilisés par dose, les volumes administrés sont de 0,05 cm^3 - 0,07 cm^3 - 0,10 cm^3 par souris soit 2,5 - 3,5 et 5 cm^3 par kg, avec des vitesses d'injection lentes.
La toxicité (DL50) est notée 7 jours après l'administration. 2) Osmolalité

A short description of a further series: Solubility. To be noted: read-out: Solubilité. In kind it is physicochemical. The text has this: (§1) - l'osmolalité exprimée en mosmoles par kg, est déterminée par cryoscopie à l'aide d'un osmomètre de type FISKE-OS Les résultats sont donnés dans le tableau suivant où l'on a également donné 1a solubilité des composés
Series [3] is described as follows: Osmolality by cryoscopy (FISKE-OS osmometer). In kind it is physicochemical.
Source text: as §1

As to `CC(=O)N(CC(O)CO)c1c(I)c(N(CC(O)CO)C(C)=O)c(I)c(N(CC(O)CO)C(C)=O)c1I` (centres unmarked) [Exemple 3, 2,4,6-triiodo-1,3,5-tris [N-(2,3-dihydroxy propyl)acétamido]benzène], the “stables à la stérilisation” value in series [1] is given as “ne présentent pas de modifications”. The LD50 at 168 h in series [2] stood at 4000 µmol/kg. The solubility in the series “Solubility” came to 1000 mM (≈ 849 mg/mL). In series [3], the Osmolalité is 630 mosmol par kg.

As to `COCC(=O)Nc1c(I)c(N(CC(O)CO)C(C)=O)c(I)c(N(CC(O)CO)C(C)=O)c1I` (centres unmarked) [Exemple 8], in series [1], the “stables à la stérilisation” value was “ne présentent pas de modifications”. The LD50 at 168 h in series [2] stood at 3300 µmol/kg. Further, the solubility in the series “Solubility” turned out to be 940 mM (≈ 757 mg/mL).

On to `CC(=O)N(CC(O)CO)c1c(I)c(NC(=O)C(C)O)c(I)c(N(CC(O)CO)C(C)=O)c1I` (centres unmarked) [Exemple 9, 2,4,6-triiodo-1-(2-hydroxypropionyl-amino)-3,5-bis [N-(2,3-dihydroxy propyl)acétamido]benzène], for which, in series [1], the “stables à la stérilisation” value was “ne présentent pas de modifications”. In addition, the LD50 at 168 h in series [2] was 3500 µmol/kg. Also, the solubility in the series “Solubility” was 1000 mM (≈ 805 mg/mL). In addition, the Osmolalité in series [3] was found to be 690 mosmol par kg.
